Reference: patent US20140057901A1, “XANTHINE DERIVATIVES, THE PREPARATION THEREOF AND THEIR USE AS PHARMACEUTICAL COMPOSITIONS” (Boehringer Ingelheim Pharma GmbH & Co. KG, priority 2001, published 2014)

Work on `CC(C)=CCn1c(N2CCC(CN)CC2)nc2c1c(=O)n(C)c(=O)n2C` [Example 2(105), 1,3-dimethyl-7-(3-methyl-2-buten-1-yl)-8-(4-aminomethyl-piperidin-1-yl)-xanthine] yielded a melting point of 110 to 112 °C.
